# Source: paper PMC5259791 (Scientific Reports, 2017)
# Legend:
# [1] = biological target: T1, PPARδ (Homo sapiens, UniProt Q03181); test: SPR on immobilized PPARδ; format: binding
# T1 construct: purchased Tebu-Bio
# T1 sequence (Q03181 1-441): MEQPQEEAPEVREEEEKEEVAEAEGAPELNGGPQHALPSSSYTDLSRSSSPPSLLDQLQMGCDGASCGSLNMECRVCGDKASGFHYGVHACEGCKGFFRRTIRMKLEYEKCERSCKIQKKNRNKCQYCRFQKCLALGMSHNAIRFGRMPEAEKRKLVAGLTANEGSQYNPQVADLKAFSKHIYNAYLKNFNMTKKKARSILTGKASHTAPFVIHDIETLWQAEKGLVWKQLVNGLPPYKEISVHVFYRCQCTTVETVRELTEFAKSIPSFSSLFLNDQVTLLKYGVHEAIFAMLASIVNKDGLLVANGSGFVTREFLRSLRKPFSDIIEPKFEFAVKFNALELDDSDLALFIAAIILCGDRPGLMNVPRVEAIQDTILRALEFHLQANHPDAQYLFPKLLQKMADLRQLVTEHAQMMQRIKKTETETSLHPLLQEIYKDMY
# Description: (§1) In order to evaluate if 1 acts as a selective ligand of PPARγ, SPR analyses were also carried out on immobilized PPARα and PPARδ, two proteins structurally and functionally related to PPARγ[23][24].
# (§2) SPR analyses were carried out on a BIACORE 3000 instrument (GE-Healthcare). PPARα, PPARγ, PPARδ and HSP60 surfaces were prepared on research−grade CM5 sensor chips (GE Healthcare). Proteins (100 μg/ml in 10 mM CH3COONa, pH 5.0) were immobilized using a standard amine−coupling protocol, to obtain densities of 3–5 kRU. Testing compounds were dissolved in 100% DMSO to obtain 4 mM solutions, and then diluted in PBS containing variable amounts of DMSO, achieving a final DMSO concentration of 0.1%. For each molecule a five−point concentration series (25 nM, 65 nM, 150 nM, 400 nM, 1 μM) was set up. SPR experiments and data elaboration were carried out as reported elsewhere.
# [2] = biological target: T2, PPARα (Homo sapiens, UniProt Q07869); test: SPR on immobilized PPARα; format: binding
# T2 construct: purchased Tebu-Bio
# T2 sequence (Q07869 1-468): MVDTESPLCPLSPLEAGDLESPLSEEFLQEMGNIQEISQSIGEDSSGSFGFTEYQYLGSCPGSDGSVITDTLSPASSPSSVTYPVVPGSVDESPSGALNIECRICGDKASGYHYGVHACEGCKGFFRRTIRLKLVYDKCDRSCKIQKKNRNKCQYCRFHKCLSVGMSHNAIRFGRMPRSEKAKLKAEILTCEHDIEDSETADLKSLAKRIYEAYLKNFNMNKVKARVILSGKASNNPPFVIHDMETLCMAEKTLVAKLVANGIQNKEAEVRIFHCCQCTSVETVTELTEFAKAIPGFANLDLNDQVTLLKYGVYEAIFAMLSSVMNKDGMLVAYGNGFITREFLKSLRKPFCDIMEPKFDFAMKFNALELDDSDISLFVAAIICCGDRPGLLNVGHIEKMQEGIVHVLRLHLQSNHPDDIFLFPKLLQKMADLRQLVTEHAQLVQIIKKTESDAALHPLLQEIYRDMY
# Description: as §1, §2
structure (smiles),measurement,setting,value
"C=C1C(=O)C23CCC4C(C(=O)OC)CC(O)CC4(C)C2CCC1C3 (stereo not shown) [Compound 1, 15-ketoatractyligenin methyl ester]",binding to PPARδ,[1],no significant binding
same,interaction with PPARα,[2],only a weak interaction
same,time to complete dissociation of complex,[2]; 1/PPARα complex,less than 50 s
same,Kd,[2]; immobilized PPARα,1320 ± 80 nM
